{
  "source": "patent US4443436A",
  "about": "“C-20-Modified macrolide derivatives of the macrolide antibiotics tylosin, desmycosin, macrocin, and lactenocin” (Eli Lilly and Company, priority 1982, dated 1984)",
  "key": {"[1]": {"test_system": "Streptococcus Group D X66", "assay": "MIC, standard agar-dilution assay, Streptococcus Group D X66", "format": "cell-based", "settings": "Streptococcus Group D X66, agar dilution"}, "[2]": {"test_system": "Staphylococcus aureus V41", "assay": "MIC, standard agar-dilution assay, Staphylococcus aureus V41", "format": "cell-based", "settings": "Staphylococcus aureus V41, penicillin-resistant strain, agar dilution"}, "Pasteurella multocida [3]": {"test_system": "Pasteurella multocida", "assay": "Subcutaneous treatment of Pasteurella multocida-infected chicks", "format": "in vivo, one-day-old chicks", "method": "(§1) Many of the C-20 modified derivatives of this invention have also shown in vivo antibacterial activity against infections induced by gram-negative bacteria. Tables XII and XIII summarize the results of tests in which illustrative compounds were evaluated against Pasteurella infection in one-day-old chicks. The compounds were administered parenterally or orally after challenge of the chicks with Pasteurella multocida (0.1 ml of a 10^-4 dilution of a twenty-hour tryptose broth culture of an avian P. multocida given subcutaneously). In these tests, unless indicated otherwise, all non-medicated infected chicks died within 24 hours of Pasteurella challenge. In the tests summarized in Table XII the compounds were administered by subcutaneous injection at a dosage of 30 mg/kg, 1 and 4 hours post-challenge of the chicks with P. multocida. In the test summarized in Table XIII the compounds were administered by gavage at 1 and 5 hours post-challenge of the chicks with P. multocida."}, "Streptococcus Group 9960": {"test_system": "Streptococcus Group 9960", "assay": "MIC, standard agar-dilution assay, Streptococcus Group 9960", "format": "cell-based", "settings": "Streptococcus Group 9960, agar dilution"}, "[4]": {"test_system": "Haemophilus influenzae Holt", "assay": "MIC, standard agar-dilution assay, Haemophilus influenzae Holt", "format": "cell-based"}, "[5]": {"test_system": "Streptococcus pyogenes C203", "assay": "In vivo protection of mice experimentally infected with S. pyogenes C203", "settings": "mice, doses given 1 and 4 hours post-infection; for ED50: Streptococcus pyogenes", "method": "The C-20 modified derivatives of this invention have shown in vivo antimicrobial activity against experimentally-induced infections in laboratory animals. When two doses of test compound were administered to mice experimentally infected with S. pyogenes C203, the activity observed was measured as an ED50 value [effective dose in mg/kg to protect 50% of the test animals: see Warren Wick, et al., J. Bacteriol. 81, 233-235 (1961)]."}, "Staphylococcus aureus": {"test_system": "Staphylococcus aureus", "assay": "MIC, broth-dilution microtiter test, Staphylococcus aureus", "format": "cell-based", "settings": "broth-dilution microtiter", "description": "(§2) The MIC's in Table X were obtained using conventional broth-dilution microtiter tests."}, "[6]": {"test_system": "Streptococcus pyogenes C203", "assay": "MIC, standard agar-dilution assay, Streptococcus pyogenes C203", "format": "cell-based"}, "[7]": {"test_system": "Streptococcus pneumoniae Park I", "assay": "microbe, parasite or virus in culture", "format": "cell-based", "settings": "Streptococcus pneumoniae Park I, agar dilution"}, "[8]": {"test_system": "Staphylococcus aureus S13E", "assay": "MIC, standard agar-dilution assay, Staphylococcus aureus S13E", "format": "cell-based"}, "Mycoplasma gallisepticum": {"test_system": "Mycoplasma gallisepticum", "assay": "MIC, broth-dilution microtiter test, Mycoplasma gallisepticum", "format": "cell-based", "settings": "Mycoplasma gallisepticum, broth-dilution microtiter", "description": "as §2"}, "[9]": {"test_system": "Staphylococcus aureus X1.1", "assay": "MIC, standard agar-dilution assay, Staphylococcus aureus X1.1", "format": "cell-based"}, "[10]": {"test_system": "Haemophilus influenzae R252", "assay": "MIC, standard agar-dilution assay, Haemophilus influenzae R252", "format": "cell-based", "settings": "Haemophilus influenzae R252, ampicillin-resistant strain"}, "[11]": {"test_system": "Pasteurella multocida 17E", "assay": "MIC, broth-dilution microtiter test, Pasteurella multocida 17E", "format": "cell-based", "settings": "Pasteurella multocida 17E, bovine isolate, broth-dilution microtiter", "description": "as §2"}, "Mycoplasma hyopneumoniae": {"test_system": "Mycoplasma hyopneumoniae", "assay": "MIC, broth-dilution microtiter test, Mycoplasma hyopneumoniae", "format": "cell-based", "settings": "Mycoplasma hyopneumoniae, broth-dilution microtiter", "description": "as §2"}, "Mycoplasma hyorhinis": {"test_system": "Mycoplasma hyorhinis", "assay": "MIC, broth-dilution microtiter test, Mycoplasma hyorhinis", "format": "cell-based", "description": "as §2"}, "[12]": {"test_system": "Staphylococcus epidermidis EPI1", "assay": "MIC, standard agar-dilution assay, Staphylococcus epidermidis EPI1", "format": "cell-based", "settings": "Staphylococcus epidermidis EPI1, agar dilution"}, "[13]": {"test_system": "Pasteurella multocida 60A", "assay": "MIC, broth-dilution microtiter test, Pasteurella multocida 60A", "format": "cell-based", "settings": "Pasteurella multocida 60A, avian isolate, broth-dilution microtiter", "description": "as §2"}, "Pasteurella multocida [14]": {"test_system": "Pasteurella multocida", "assay": "Oral (gavage) treatment of Pasteurella multocida-infected chicks", "format": "in vivo, one-day-old chicks", "method": "as §1"}, "[15]": {"test_system": "Staphylococcus aureus X400", "assay": "MIC, standard agar-dilution assay, Staphylococcus aureus X400", "format": "cell-based", "settings": "Staphylococcus aureus X400, methicillin-resistant strain, agar dilution"}, "[16]": {"test_system": "Pasteurella hemolytica 22C", "assay": "MIC, broth-dilution microtiter test, Pasteurella hemolytica 22C", "format": "cell-based", "settings": "Pasteurella hemolytica 22C, broth-dilution microtiter", "description": "as §2"}, "Streptococcus bovis 80": {"test_system": "Streptococcus bovis 80", "assay": "MIC, broth-dilution microtiter test, Streptococcus bovis 80", "format": "cell-based", "description": "as §2"}, "[17]": {"test_system": "Staphylococcus epidermidis EPI2", "assay": "MIC, standard agar-dilution assay, Staphylococcus epidermidis EPI2", "format": "cell-based", "settings": "Staphylococcus epidermidis EPI2; agar dilution"}, "Mycoplasma synoviae": {"test_system": "Mycoplasma synoviae", "assay": "MIC, broth-dilution microtiter test, Mycoplasma synoviae", "format": "cell-based", "settings": "Mycoplasma synoviae; broth-dilution microtiter", "description": "as §2"}, "[18]": {"settings": "30 mg/kg × 2, 1 and 4 hours post-challenge"}},
  "note": "“And” between values parts separate entries of the source, which are not always exact repeats. Identical values can stand only once. Like-named read-outs stand apart in the source and are kept apart here.",
  "data": [
    {"molecule": "CCC1OC(=O)CC(O)C(C)C(OC2OC(C)C(O)C(N(C)C)C2O)C(CCCl)CC(C)C(=O)C=CC(C)=CC1COC1OC(C)C(O)C(OC)C1OC", "note": "(centres unmarked) [Compound 21, 20-DH-DO-20-Chlorodesmycosin]", "values": [
      {"measurement": "MIC", "setting": "[1]; read-out: MIC", "value": 8, "unit": "µg/mL"},
      {"measurement": "MIC", "setting": "[2]; read-out: MIC", "value": 0.12, "unit": "µg/mL"},
      {"measurement": "Number of Deaths/Number Treated", "setting": "Pasteurella multocida [3]; [18]", "value": "9/10"},
      {"measurement": "Number of Deaths/Number Treated", "setting": "Pasteurella multocida [3]; 30 mg/kg × 2, 8/10 infected nonmedicated chicks died in this test", "value": "7/10"},
      {"measurement": "MIC", "setting": "Streptococcus Group 9960; GROUP9960, read-out: MIC", "value": 8, "unit": "µg/mL"},
      {"measurement": "MIC", "setting": "[4]; Haemophilus influenzae", "value": 16, "unit": "µg/mL"},
      {"measurement": "ED50", "setting": "[5]; C203, sc, subcutaneous, read-out: ED50, Subcutaneous", "value": 0.7, "unit": "mg/kg"},
      {"measurement": "ED50", "setting": "[5]; C203, oral, read-out: ED50, Oral", "value": 6, "unit": "mg/kg"},
      {"measurement": "MIC", "setting": "Staphylococcus aureus; read-out: MIC", "value": 0.78, "unit": "µg/mL"},
      {"measurement": "MIC", "setting": "[6]; Streptococcus pyogenes, C203", "value": 0.25, "unit": "µg/mL"},
      {"measurement": "MIC", "setting": "[7]; read-out: MIC", "value": 1, "unit": "µg/mL"},
      {"measurement": "MIC", "setting": "[8]; Staphylococcus aureus, S13E", "value": 0.12, "unit": "µg/mL"},
      {"measurement": "MIC", "setting": "Mycoplasma gallisepticum; Mycoplasmoides gallisepticum, read-out: MIC", "value": 0.39, "unit": "µg/mL"},
      {"measurement": "MIC", "setting": "[9]; Staphylococcus aureus, X1.1", "value": 0.25, "unit": "µg/mL"},
      {"measurement": "MIC", "setting": "[10]; read-out: MIC", "value": 16, "unit": "µg/mL"},
      {"measurement": "MIC", "setting": "[11]; read-out: MIC", "value": 12.5, "unit": "µg/mL"},
      {"measurement": "MIC", "setting": "Mycoplasma hyopneumoniae; Mesomycoplasma hyopneumoniae, read-out: MIC", "value": 12.5, "unit": "µg/mL"},
      {"measurement": "MIC", "setting": "Mycoplasma hyorhinis; Mycoplasma", "value": 50, "unit": "µg/mL"},
      {"measurement": "MIC", "setting": "[12]; read-out: MIC", "value": 0.12, "unit": "µg/mL"},
      {"measurement": "MIC", "setting": "[13]; read-out: MIC", "value": 6.25, "unit": "µg/mL"},
      {"measurement": "Number of Deaths/Number tested", "setting": "Pasteurella multocida [14]; 1.0 g/gal equivalent", "value": "3/9"},
      {"measurement": "Number of Deaths/Number tested", "setting": "Pasteurella multocida [14]; 2.0 g/gal equivalent", "value": "0/9 and 0/10"},
      {"measurement": "Number of Deaths/Number tested", "setting": "Pasteurella multocida [14]; 2.0 g/gal equivalent, 13/20 infected nonmedicated chicks died in this test", "value": "2/10"},
      {"measurement": "MIC", "setting": "[15]; read-out: MIC", "value": 0.5, "unit": "µg/mL"},
      {"measurement": "MIC", "setting": "[16]; read-out: MIC", "value": 12.5, "unit": "µg/mL"},
      {"measurement": "MIC", "setting": "Streptococcus bovis 80; Streptococcus equinus, 80", "value": 3.12, "unit": "µg/mL"}
    ]},
    {"molecule": "CCOC(=O)NN(CCC1CC(C)C(=O)C=CC(C)=CC(COC2OC(C)C(O)C(OC)C2OC)C(CC)OC(=O)CC(O)C(C)C1OC1OC(C)C(O)C(N(C)C)C1O)C(=O)OCC", "note": "(centres unmarked) [Compound 45, 20-DH-DO-20-[N-(Ethoxycarbonyl)-N-(ethoxycarbonylamino)]aminodesmycosin]", "values": [
      {"measurement": "MIC", "setting": "[1]", "value": 16, "unit": "µg/mL"},
      {"measurement": "MIC", "setting": "[2]", "value": 0.5, "unit": "µg/mL"},
      {"measurement": "Number of Deaths/Number Treated", "setting": "Pasteurella multocida [3]; [18]", "value": "9/10"},
      {"measurement": "MIC", "setting": "Streptococcus Group 9960", "value": 8, "unit": "µg/mL"},
      {"measurement": "MIC", "setting": "[4]; Haemophilus influenzae Holt, ampicillin-sensitive strain, agar dilution", "value": 32, "unit": "µg/mL"},
      {"measurement": "ED50, Oral", "setting": "[5]; oral", "value": "> 50", "unit": "mg/kg × 2"},
      {"measurement": "ED50, Subcutaneous", "setting": "[5]; subcutaneous", "value": 2.1, "unit": "mg/kg × 2"},
      {"measurement": "MIC", "setting": "Staphylococcus aureus", "value": 1.56, "unit": "µg/mL"},
      {"measurement": "MIC", "setting": "[6]; Streptococcus pyogenes C203, agar dilution", "value": 2, "unit": "µg/mL"},
      {"measurement": "MIC", "setting": "[17]", "value": 0.25, "unit": "µg/mL"},
      {"measurement": "MIC", "setting": "[7]", "value": 0.5, "unit": "µg/mL"},
      {"measurement": "MIC", "setting": "[8]; Staphylococcus aureus S13E, agar dilution", "value": 0.5, "unit": "µg/mL"},
      {"measurement": "MIC", "setting": "Mycoplasma gallisepticum", "value": 0.39, "unit": "µg/mL"},
      {"measurement": "MIC", "setting": "[9]; Staphylococcus aureus X1.1, agar dilution", "value": 0.5, "unit": "µg/mL"},
      {"measurement": "MIC", "setting": "[10]; agar dilution", "value": 32, "unit": "µg/mL"},
      {"measurement": "MIC", "setting": "[11]", "value": 25, "unit": "µg/mL"},
      {"measurement": "MIC", "setting": "Mycoplasma hyopneumoniae", "value": 6.25, "unit": "µg/mL"},
      {"measurement": "MIC", "setting": "Mycoplasma hyorhinis; Mycoplasma hyorhinis, broth-dilution microtiter", "value": "-- (Not active at 50 mcg/ml, the highest level tested)"},
      {"measurement": "MIC", "setting": "[12]", "value": 0.5, "unit": "µg/mL"},
      {"measurement": "MIC", "setting": "[13]", "value": 25, "unit": "µg/mL"},
      {"measurement": "MIC", "setting": "Mycoplasma synoviae", "value": 6.25, "unit": "µg/mL"},
      {"measurement": "MIC", "setting": "[15]", "value": 1, "unit": "µg/mL"},
      {"measurement": "MIC", "setting": "[16]", "value": 50, "unit": "µg/mL"},
      {"measurement": "MIC", "setting": "Streptococcus bovis 80; Streptococcus bovis 80, broth-dilution microtiter", "value": 12.5, "unit": "µg/mL"}
    ]}
  ]
}
